The target of assay [1] is T1, human pancreatic α-amylase (HPA) (Homo sapiens, UniProt P04746).
T1 construct: made in house; host or cells: Pichia pastoris strain GM5011
T1 sequence (P04746 16-511): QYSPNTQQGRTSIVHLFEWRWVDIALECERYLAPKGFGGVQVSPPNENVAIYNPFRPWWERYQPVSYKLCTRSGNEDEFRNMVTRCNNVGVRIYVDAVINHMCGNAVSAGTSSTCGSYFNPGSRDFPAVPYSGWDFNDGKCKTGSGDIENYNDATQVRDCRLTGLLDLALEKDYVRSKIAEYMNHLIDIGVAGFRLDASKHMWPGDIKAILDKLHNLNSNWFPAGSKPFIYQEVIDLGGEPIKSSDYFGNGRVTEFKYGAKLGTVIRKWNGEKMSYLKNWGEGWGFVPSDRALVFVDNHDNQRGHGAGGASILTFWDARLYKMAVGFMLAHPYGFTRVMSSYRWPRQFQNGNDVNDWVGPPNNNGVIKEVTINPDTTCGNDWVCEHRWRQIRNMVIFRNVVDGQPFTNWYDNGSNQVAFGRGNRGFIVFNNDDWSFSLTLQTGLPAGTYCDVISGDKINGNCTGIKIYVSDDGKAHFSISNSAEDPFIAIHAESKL
In words: Inhibition of wild-type human pancreatic α-amylase (HPA), kinetic KI determination with CNP-G3. The assay is classed as biochemical.

In assay [2] the target is T2, H. sapiens ctMGAM (Homo sapiens, UniProt O43451).
T2 construct: H. sapiens ctMGAM
In words: Inhibition of C-terminal domain of maltase-glucoamylase. The assay is classed as biochemical. The following applies: for Ki: GH family 31.

In assay [3] the target is T3, H. sapiens ctSI (Homo sapiens, UniProt P14410).
T3 construct: H. sapiens ctSI
In words: Inhibition of C-terminal domain of sucrose-isomaltase. The assay is classed as biochemical.

Assay [4] deals with Roseburia inulinivorans Amy A (Roseburia inulinivorans, UniProt A0ACG1Y5C3). The experiment in a line: Inhibition of gut bacterial amylase Roseburia inulinivorans Amy A. The assay is classed as biochemical. The following applies: for Ki: GH family 13.
Assay [5] has as its target T4, Homo sapiens ntMGAM (Homo sapiens, UniProt O43451).
T4 construct: Homo sapiens ntMGAM
The experiment in a line: Inhibition of N-terminal domain of maltase glucoamylase. The following applies: for Ki: GH family 31. The assay is classed as biochemical.

For assay [6], the target named is T5, H299N HPA (Homo sapiens, UniProt P04746, H314N).
T5 construct: made in house; host or cells: Pichia pastoris strain GM5011
T5 sequence (P04746 16-511 H314N): T1 sequence (P04746 16-511) with H299N
In words: Inhibition of H299N variant HPA, kinetic KI determination. The following applies: variant used for co-crystallization; read-out: KI for inhibition of the H299N HPA variant enzyme. The class given is biochemical. The procedure: Kinetic Studies. The inhibition constants (KI) of montbretins A-E and MbA substructures for wild-type HPA, along with MbA for H299N HPA were determined by measuring the rates of reactions at different inhibitor and substrate concentrations. […] 2-Chloro-4-nitrophenyl α-D-maltotrioside (CNP-G3) was used as the substrate in a similar range of concentrations. Initial reaction rates for the release of chloronitrophenolate were measured and the further progress of substrate cleavage monitored continuously. Reactions were performed on a Varian Cary 4000 UV/Vis spectrophotometer at 400 nm and 30° C. Observed reaction rates were fitted directly to various inhibition models using GraFit version 5.0.13 and KI values were determined. Competitive inhibition provided the best fit in each case.

Assay [7] has as its system diabetic rat model. The note with it: McNeill, unpublished data; cited from earlier work.
In assay [8] the target is Butyrivibrio fibrisolvens Amy B. In words: Inhibition of gut bacterial amylase Butyrivibrio fibrisolvens Amy B. The class given is biochemical.
In assay [9] the target is T1, human pancreatic α-amylase (HPA). The following applies: literature value, reference (5); read-out: Ki, binds to HPA; cited from earlier work.
Where [10] appears, read: Tables 4 and 5, read-out: Ki (HPA Inhibition).
Where [11] appears, read: tested at 100 μM, read-out: Ki With MbA-GRX.
The mark [12] stands for this setting: Table 6, GH family 13, mean ± s.d., read-out: Ki (nM), HPA.
Setting [13] is: wild-type HPA, CNP-G3 substrate, pH 7.0, 30° C., competitive inhibition model, read-out: Ki of HPA.
The mark [14] stands for this setting: tested at 500 μM, read-out: Ki with MbA.

Here are results for 14 molecules from patent US11608353B2, “Amylase inhibitor compounds, methods of their use and compositions thereof” (THE UNIVERSITY OF BRITISH COLUMBIA, priority 2016, dated 2023).

Substitutions are numbered along the chain they refer to. Several values for one entry are separate records, joined by “and”; a condition that tells them apart may be missing. Equal entries are not always repeated. Where two headings read alike, the source gives them in different places.

T3 sequence (P14410 1008-1827 limits assumed): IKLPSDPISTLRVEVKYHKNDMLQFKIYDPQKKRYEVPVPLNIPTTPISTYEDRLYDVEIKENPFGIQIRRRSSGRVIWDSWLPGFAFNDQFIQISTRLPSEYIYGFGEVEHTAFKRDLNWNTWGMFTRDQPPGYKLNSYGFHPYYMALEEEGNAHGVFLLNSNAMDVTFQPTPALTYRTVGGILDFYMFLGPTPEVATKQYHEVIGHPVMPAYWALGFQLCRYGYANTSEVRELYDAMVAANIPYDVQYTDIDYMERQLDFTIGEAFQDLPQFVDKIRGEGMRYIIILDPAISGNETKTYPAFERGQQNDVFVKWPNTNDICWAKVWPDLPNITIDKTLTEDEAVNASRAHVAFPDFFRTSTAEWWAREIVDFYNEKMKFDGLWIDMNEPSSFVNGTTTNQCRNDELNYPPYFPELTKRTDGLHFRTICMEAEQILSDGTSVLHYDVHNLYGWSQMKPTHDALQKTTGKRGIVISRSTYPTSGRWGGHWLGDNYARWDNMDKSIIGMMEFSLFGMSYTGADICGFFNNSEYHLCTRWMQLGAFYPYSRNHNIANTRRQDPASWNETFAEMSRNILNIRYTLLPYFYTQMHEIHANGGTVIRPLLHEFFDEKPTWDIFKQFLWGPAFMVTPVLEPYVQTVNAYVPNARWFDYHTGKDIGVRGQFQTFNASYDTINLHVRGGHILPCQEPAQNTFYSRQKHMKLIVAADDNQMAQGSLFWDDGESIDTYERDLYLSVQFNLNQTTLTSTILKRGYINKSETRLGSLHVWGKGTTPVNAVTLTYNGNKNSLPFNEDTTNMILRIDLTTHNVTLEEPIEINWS
T4 sequence (O43451 356-737 limits assumed): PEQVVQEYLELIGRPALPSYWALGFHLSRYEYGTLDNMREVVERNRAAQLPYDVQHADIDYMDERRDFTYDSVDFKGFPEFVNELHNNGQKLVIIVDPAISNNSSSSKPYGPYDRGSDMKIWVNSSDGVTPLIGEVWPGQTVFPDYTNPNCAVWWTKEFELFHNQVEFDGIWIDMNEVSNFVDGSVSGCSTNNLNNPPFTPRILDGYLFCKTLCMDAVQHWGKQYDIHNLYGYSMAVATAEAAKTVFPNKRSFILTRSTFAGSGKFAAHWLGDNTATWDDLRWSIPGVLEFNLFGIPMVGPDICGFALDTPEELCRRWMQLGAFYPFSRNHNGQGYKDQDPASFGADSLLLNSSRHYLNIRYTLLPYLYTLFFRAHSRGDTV
Chain of Roseburia inulinivorans Amy A (A0ACG1Y5C3 entry or part of it): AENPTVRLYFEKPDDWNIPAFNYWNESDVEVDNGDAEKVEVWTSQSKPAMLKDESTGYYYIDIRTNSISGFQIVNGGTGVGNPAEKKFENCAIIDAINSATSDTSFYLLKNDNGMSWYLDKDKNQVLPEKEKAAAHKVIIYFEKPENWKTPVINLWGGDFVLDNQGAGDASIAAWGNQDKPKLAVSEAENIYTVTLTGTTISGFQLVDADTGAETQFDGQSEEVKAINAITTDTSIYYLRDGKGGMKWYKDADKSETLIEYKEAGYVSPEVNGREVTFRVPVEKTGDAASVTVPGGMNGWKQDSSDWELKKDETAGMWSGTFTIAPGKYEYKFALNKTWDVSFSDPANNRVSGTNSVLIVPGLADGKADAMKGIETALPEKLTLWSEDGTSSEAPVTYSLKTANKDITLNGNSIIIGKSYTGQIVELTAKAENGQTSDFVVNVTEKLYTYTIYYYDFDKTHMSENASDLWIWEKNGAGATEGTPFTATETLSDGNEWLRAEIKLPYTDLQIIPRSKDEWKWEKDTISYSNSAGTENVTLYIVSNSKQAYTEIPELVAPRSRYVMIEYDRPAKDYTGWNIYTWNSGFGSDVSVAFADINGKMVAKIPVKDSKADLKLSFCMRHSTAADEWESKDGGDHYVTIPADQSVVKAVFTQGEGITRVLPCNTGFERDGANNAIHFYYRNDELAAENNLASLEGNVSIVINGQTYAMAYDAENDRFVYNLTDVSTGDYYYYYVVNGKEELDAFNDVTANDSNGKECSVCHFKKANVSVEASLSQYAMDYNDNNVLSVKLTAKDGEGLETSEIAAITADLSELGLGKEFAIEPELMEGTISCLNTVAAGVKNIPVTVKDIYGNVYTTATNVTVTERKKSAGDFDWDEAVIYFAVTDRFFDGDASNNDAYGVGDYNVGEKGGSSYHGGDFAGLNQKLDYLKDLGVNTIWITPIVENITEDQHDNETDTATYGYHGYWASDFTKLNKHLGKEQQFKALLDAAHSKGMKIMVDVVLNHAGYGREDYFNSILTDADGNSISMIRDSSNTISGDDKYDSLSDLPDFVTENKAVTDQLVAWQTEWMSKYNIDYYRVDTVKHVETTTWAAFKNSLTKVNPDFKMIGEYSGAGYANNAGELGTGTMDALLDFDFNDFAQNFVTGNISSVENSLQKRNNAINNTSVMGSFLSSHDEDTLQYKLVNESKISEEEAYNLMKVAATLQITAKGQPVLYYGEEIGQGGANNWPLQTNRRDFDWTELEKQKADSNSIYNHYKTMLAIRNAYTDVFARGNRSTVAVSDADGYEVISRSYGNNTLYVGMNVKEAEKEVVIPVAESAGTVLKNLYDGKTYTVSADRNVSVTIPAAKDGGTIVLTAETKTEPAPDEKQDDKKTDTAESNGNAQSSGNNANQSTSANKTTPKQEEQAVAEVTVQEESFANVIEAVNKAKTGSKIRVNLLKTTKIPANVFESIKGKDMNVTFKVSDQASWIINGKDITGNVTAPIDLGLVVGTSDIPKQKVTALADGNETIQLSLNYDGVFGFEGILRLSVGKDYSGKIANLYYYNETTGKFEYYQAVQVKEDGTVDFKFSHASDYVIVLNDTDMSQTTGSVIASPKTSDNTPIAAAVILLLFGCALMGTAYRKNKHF
T2 sequence (O43451 1221-1632 limits assumed): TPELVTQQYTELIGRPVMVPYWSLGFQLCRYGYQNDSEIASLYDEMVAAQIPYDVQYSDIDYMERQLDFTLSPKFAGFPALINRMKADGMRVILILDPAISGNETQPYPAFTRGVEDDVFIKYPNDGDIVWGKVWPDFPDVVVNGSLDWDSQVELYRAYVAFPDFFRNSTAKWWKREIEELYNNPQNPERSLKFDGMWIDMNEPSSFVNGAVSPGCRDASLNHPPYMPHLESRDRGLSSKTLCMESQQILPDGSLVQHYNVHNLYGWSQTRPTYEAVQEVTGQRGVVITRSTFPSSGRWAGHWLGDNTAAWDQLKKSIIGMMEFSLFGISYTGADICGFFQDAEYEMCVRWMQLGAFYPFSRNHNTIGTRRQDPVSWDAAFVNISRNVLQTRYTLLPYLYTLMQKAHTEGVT

Turning to `O=C(/C=C/c1ccc(O)c(O)c1)NC[C@H]1O[C@@H](O[C@H]2[C@H](O)[C@@H](O)[C@H](Oc3c(-c4ccc(O)c(O)c4)oc4cc(O)cc(O)c4c3=O)O[C@@H]2CO)[C@H](O)[C@@H](O)[C@@H]1O` [11 (6-aminoGlc)], the Ki in [1] (setting [10]) turned out to be 70000 nM.
As to `O=C(/C=C/c1ccc(O)c(O)c1)N[C@@H]1[C@H](O)[C@@H](O)[C@H](O[C@H]2[C@H](O)[C@@H](O)[C@H](Oc3c(-c4ccc(O)c(O)c4)oc4cc(O)cc(O)c4c3=O)O[C@@H]2CO)O[C@@H]1CO` [12 (4-aminoGal)], the Ki in [1] (setting [10]) amounted to 45000 nM.
On the same count and under the same terms, then `O=C(/C=C/c1ccc(O)c(O)c1)NCCOCCOCCOc1c(-c2ccc(O)c(O)c2)oc2cc(O)cc(O)c2c1=O` [Compound 02], with 82000 nM.
As for `O=C(/C=C/c1ccc(O)c(O)c1)NCCCOc1c(-c2ccc(O)c(O)c2)oc2cc(O)cc(O)c2c1=O` [Compound 03], the inhibition constant Ki in [1] (setting [10]) is 145000 nM.
The same measure, in the same setting: the same measure for `O=C(/C=C/c1ccc(O)c(O)c1)NCCCCCCCOc1c(-c2ccc(O)c(O)c2)oc2cc(O)cc(O)c2c1=O` [Compound 05]: 4000 nM.
Regarding `CC1O[C@@H](Oc2c(-c3cc(O)c(O)c(O)c3)oc3cc(O)cc(O)c3c2=O)C(O[C@@H]2OC(COC(=O)/C=C/c3ccc(O)c(O)c3)[C@@H](O)[C@@H](O)C2O)[C@@H](O)[C@H]1O` (stereo partly drawn) [MbA-1GRX], the inhibitory constant (Ki) in assay [2] (setting [11]) is more than 100000 nM; in assay [4] (setting [11]), more than 100000 nM; in assay [1] (setting [12]), 93.3 ± 7.6 nM; in assay [1] (setting [13]), 93 nM and 93.3 nM; in assay [5] (setting [11]), more than 100000 nM. Moreover, the “inhibition of maltase-glucoamylase (in words)” value in assay [2] (MbA-GRX) and in assay [5] (MbA-GRX) was “No inhibition” throughout. This molecule had an IC50 in assay [3] of 75500 nM. For the same molecule, in assay [1] (relative to MbA (KI=4.4 nM)), the “poorer at binding to the active site of HPA than the full structure of MbA” value is reported as approximately 25 ×.
Consider `CC1O[C@@H](Oc2c(-c3cc(O)c(O[C@@H]4OC[C@@H](O)C(O)C4O)c(O)c3)oc3cc(O)cc(O)c3c2=O)C(O[C@@H]2OC(COC(=O)/C=C/c3ccc(O)c(O)c3)[C@@H](O)C(O)C2O)C(O)[C@H]1O` (stereo partly drawn) [MbA-1GR], for which, in assay [1] (setting [13]), the inhibitory constant (Ki) was 79 nM and 79.3 nM.
For the molecule `CC1O[C@@H](Oc2c(-c3cc(O)c(O)c(O)c3)oc3cc(O)cc(O)c3c2=O)C(O[C@@H]2OC(COC(=O)/C=C/c3ccc(O)c(O)c3)[C@@H](O)[C@@H](O)C2O[C@@H]2OC(CO)[C@@H](O)[C@@H](O)C2O)[C@@H](O)[C@H]1O` (stereo partly drawn) [MbA-RX], the inhibition constant Ki in [1] (setting [13]) is 43 nM and 42.4 nM.
On to Montbretin D [MbD], for which the “inhibitory activity against HPA (in words)” value in assay [1] was “poor inhibitory activity”.
Take Montbretin E [MbE]: the “inhibitory activity against HPA (in words)” value in assay [1] was “poor inhibitory activity”.
On to Quercetin/Myricetin, for which the Ki in [1] (setting [10]) was found to be 100000 nM.
As to montbretin A [MbA], the inhibition constant Ki in assay [6] was 124 nM; in assay [2] (setting [14]) it was more than 500000 nM; in assay [8], 1600 nM; in [3] (GH family 31, tested at 500 μM, read-out: Ki with MbA), more than 500000 nM; in assay [9], 8 nM; in assay [4] (setting [14]) it was more than 500000 nM. The inhibition constant (Ki) in assay [1] (setting [12]) is 8.1 nM; in assay [1] (setting [10]) it was 8 nM; in assay [1] (setting [13]) it was 4.4 nM; in assay [5] (setting [14]), more than 500000 nM. For the same molecule, the “inhibition of human maltase-glucoamylase (MGAM) (in words)” value in assay [2] (concentrations up to 500 μM) and in assay [5] (concentrations up to 500 μM) was “Neither the human maltase-glucoamylase (MGAM) nor the human sucrose isomaltase (SI) was inhibited” in each case. In addition, the “reducing postprandial glucose spiking and delaying the onset of diabetes” value in assay [7] was “superior to other inhibitors”. The “inhibition of human sucrose isomaltase (SI) (in words)” value in assay [3] (concentrations up to 500 μM) is “Neither the human maltase-glucoamylase (MGAM) nor the human sucrose isomaltase (SI) was inhibited”. In assay [4], the “inhibition of gut bacterial amylase (in words)” value was “not inhibited at all”.
Turning to montbretin B [MbB], the “decrease in inhibitory activity” value in assay [1] (relative to MbA, reference (5)) was approximately 1000 ×.
Take montbretin C [MbC]: in assay [1] (relative to MbB), the “lower inhibition for HPA than MbB” value came out at 2 ×.
